Results on three compounds are retold here after article PMC9181887, “In Vitro Antithrombotic, Hematological Toxicity, and Inhibitor Studies of Protocatechuic, Isovanillic, and p-Hydroxybenzoic Acids from Maclura tricuspidata (Carr.) Bur” (Molecules, 2022).

For series [1], the target named is T1, human thrombin (Homo sapiens, UniProt P00734).
T1 construct: purchased Sigma-Aldrich
The series can be described thus: Thrombin activity and kinetic/inhibitor assay. Format: biochemical. As to conditions: for inhibition type against thrombin: from Kik/Kiv ratio and Lineweaver–Burk plots; for activity of thrombin: highest concentration of each compound, p < 0.01; for IC50 / Ki / Kik/Kiv / Kcat / Vmax: thrombin; for Vmax value of thrombin decreased by, fold of non-treated: vs non-treated 0.381 ± 0.011 mU/min; for Vmax value of thrombin decreased by, fold of non-treated / Km value of thrombin reduced by, fold of non-treated / Kcat values of thrombin reduced by, fold of non-treated: compound 0.065–1.3 mM; for Km value of thrombin reduced by, fold of non-treated: vs non-treated 0.566 ± 0.025 mM; for Kcat values of thrombin reduced by, fold of non-treated: vs non-treated 109.87 ± 3.16 s^−1. How it is done:
To determine the thrombin activity, various concentrations of compounds were treated with 1 U human thrombin in 100 μL of 20 mM Tris-HCl, as previously described. The reaction solutions were incubated for 15 min at 37 °C. After the incubation, 1 mM chromogenic substrate for thrombin (S-2238, HD-Phe-Pip-Arg-p-nitroanilide) was added and incubated for 1 h at 37 °C. Absorbance was measured at 405 nm to determine the enzymatic activity. To determine FXa activity, various concentrations of the compounds were mixed with 1 U human FXa in 20 mM Tris-HCl (pH 7.4) in volume of 100 μL, followed by incubation for 15 min at 37 °C. After adding 1 mM N-benzoyl-Ile-Glu-Gly-Arg-p-nitroanilide, a highly specific chromogenic peptide substrate for FXa, the reaction solutions were incubated for 1 h at 37 °C. The residual activity of FXa was measured at 405 nm and is presented as a percentage of inhibition. To investigate FXIIIa activity, various concentrations of the compounds were mixed with 1 U human FXIIIa in 20 mM Tris-HCl (pH 7.4) in a volume of 100 μL, followed by, incubation for 15 min at 37 °C as previously described. The residual activity of FXIIIa was measured using casein and fibrinogen-HRP, according to the manufacturer’s instructions, and was presented as a percentage of inhibition. The negative control was generated by treatment with only thrombin, FXa, or FXIIIa without treatment with any compound.
Kinetic assays were performed using PA, IVA, and 4-HA for procoagulant proteases (thrombin and FXa) and fibrinoligase (FXIIIa). The kinetic constants were calculated using Lineweaver–Burk plots based on the initial reaction rates with different concentrations (0.1, 0.5, 1, and 2 mM) of each substrate for thrombin, FXa, and FXIIIa treated with or without the compounds (0.065, 0.13, 0.33, 0.65, and 1.30 mM [1–20 μg]) in a total volume of 100 μL. The Michaelis–Menten constant (Km) and maximal velocity (Vmax) were calculated from the x and y intercepts, respectively. […] The median inhibitory concentration (IC50) was defined as the concentration required to reach a 50% reduction in the activity of the three target factors. The Kik and Kiv inhibition constants were calculated using a previously described method. The inhibition type of the compounds against the three target factors was evaluated according to a previously described inhibition type definition.

In series [2] the test system is human plasma. The series can be described thus: Coagulation assay, APTT. As to conditions: for APTT, fold of control / activated partial thromboplastin time (APTT): 100 μg; for activated partial thromboplastin time (APTT): control 39.5 ± 1.5 s, p < 0.01. Format: biochemical. How it is done:
A coagulation assay was performed to evaluate the prolongation potential of the compounds in blood coagulation by measuring APTT, PT, and TT, as previously described. After pretreatment of the compounds with human plasma for 10 min, APTT, PT, and TT were determined by a coagulometer (Thrombostat 1) manufactured by Behnk Elektronik, Germany.

Series [3] has as its system thrombin-activated platelets. The series can be described thus: Serotonin release assay. Format: cell-based. As to conditions: p < 0.05. How it is done: Figure 7 Effect of PA, IVA, and 4-HA on granule secretion. Aliquots of washed platelets pre-treated with or without the compounds for 5 min were stimulated with 0.25 U/mL thrombin at 37 °C for 5 min. After stimulation, the platelets were centrifuged, and the supernatants were collected. Using these supernatants, ATP (A) or serotonin (B) release was determined according to the manufacturer’s instructions. Each value is the mean ± SD of triplicate measurements. # p < 0.01, compared to each control groups. * p < 0.05 and ** p < 0.01, compared to only thrombin-treated control groups. Thrombin, thrombin treated only; PA10-100, 10–100 μg of PA treated; IVA10-100, 10–100 μg of IVA treated; 4-HA10-100, 10–100 μg of 4-HA treated.
Aliquots of washed platelets (250 × 10^6/mL) pre-treated with the compounds for 5 min were activated with 0.25 U/mL of thrombin in the presence of 1 mM of Ca^2+ for 5 min at 37 °C, according to a previously described method, with slight modifications. After stimulation, the reaction solution was centrifuged at 4 °C and 12,000× g for 5 min, and the supernatant was collected for subsequent use. Serotonin release was determined using a serotonin enzyme-linked immunosorbent assay kit (Labor Diagnostika Nord GmbH & Co., Nordhorn, Germany), according to the manufacturer’s instructions.

Series [4] relates to leukocytes. The series is described as follows: Hematological study, leukocyte count by hemocytometer. As to conditions: 10 min, vs control. The class given is cell-based. The procedure:
Figure 1 Blood cytotoxic effect of PA (A), IVA (B), and 4-HA (C). Aliquots of washed platelets (10^3/mL), erythrocytes (10^6/mL), and leukocytes (10^3/mL) were treated with or without the compounds for 10 min and cell number was determined by hemocytometer counts. Each value is the mean ± SD of triplicate measurements. * p < 0.05 and ** p < 0.01, compared to each control groups. 10–500, 10–100 μg of each compound treated.
Total white blood cells (leukocytes) and red blood cells (erythrocytes) were counted using a hemocytometer, as previously described. Blood was diluted 1:200 with Hayem’s fluid and the cells were counted in a loaded hemocytometer chamber. To count the blood platelets, blood was diluted in a ratio of 1:20 with a diluting fluid, and four large (1 mm^2) corner squares of the hemocytometer were counted under a light microscope. Aliquots of leukocytes (0.1 mL; 10^3/mL), erythrocytes (0.1 mL; 10^6/mL), and platelets (0.1 mL; 10^3/mL) were treated with or without the compounds for 10 min.

Series [5] has as its system fibrin clot formation (fibrinogen, thrombin, CaCl2). The series can be described thus: Fibrin clot assay. As to conditions: 100 μg. The class given is biochemical, Human. The procedure: The fibrin clot assay, as previously described, was performed to evaluate the improvement in blood circulation by the attenuation of fibrin formation. First, 1.5% fibrinogen, 0.5 U/mL of thrombin, and 5 mM CaCl2 in 20 mM Tris-HCl in a volume of 100 μL were added to different concentrations of compounds or 10–20 IU u-PA as PC 1–2. These prepared fibrin clot mixtures were incubated at 37 °C for 30 min. Each tube of the fibrin clot mixture was photographed, and the density of the clots was measured using the ImageJ 1.46 b image analysis software (National Institutes of Health, Bethesda, MD, USA). Inhibitory activity was calculated as follows:Inhibitory activity (%) = [1 − (density control without sample−density sample)/density control without sample] × 100

Molecules are shown by their SMILES.

What is called IC50 is the point on the concentration scale where inhibition reaches its midpoint. Low values mean greater potency in that assay, high ones weaker potency in that assay. What is called Ki is a dissociation constant, usually derived from enzyme kinetics or from competition with a known ligand. High values mean a looser hold on the target, low ones a stronger hold on the target. `O=C(O)c1ccc(O)cc1` [4-HA, 4-hydroxybenzoic acid]: in series [1], the “inhibition type against thrombin” value is given as “uncompetitive inhibition type”, the activity of thrombin result was “significantly decreased”, the IC50 was found to be 1700 µM and the affinity corresponds to a Ki of 1700 µM. Moreover, in series [1], the Kik/Kiv was 1.2; the “Vmax value of thrombin decreased by, fold of non-treated” value is 0.72–0.92 fold; the “Km value of thrombin reduced by, fold of non-treated” value is given as 0.71–0.86 fold; the “Kcat values of thrombin reduced by, fold of non-treated” value was 0.72–0.92 fold. Besides, in series [1] (compound 0.065 mM (1 μg)), the Kcat turned out to be 100.59 ± 1.41 s⁻¹ and the Vmax turned out to be 0.349 ± 0.013 mU/min. In series [1] (compound 0.13 mM (2 μg)), the Kcat stood at 98.38 ± 1.24 s⁻¹ and the Vmax is given as 0.341 ± 0.015 mU/min. Besides, in series [1] (compound 0.325 mM (5 μg)), the Kcat came to 91.57 ± 0.98 s⁻¹ and the Vmax is 0.317 ± 0.016 mU/min. Moreover, in series [1] (compound 0.65 mM (10 μg)), the Kcat came out at 89.25 ± 0.77 s⁻¹ and the Vmax came out at 0.309 ± 0.020 mU/min. In series [1] (compound 1.3 mM (20 μg)), the Kcat came out at 78.83 ± 1.01 s⁻¹ and the Vmax is listed as 0.273 ± 0.013 mU/min. Besides, in series [2], the “APTT, fold of control” value came out at 1.53 fold and the “activated partial thromboplastin time (APTT)” value came to 60.3 ± 5.6 s. Moreover, the thrombin-stimulated serotonin secretion entry in series [3] (100 μg) was “inhibited significantly”. In addition, the “effect on leukocyte number” value in series [4] (10–50 μg/mL) is recorded as “did not cause any effect”. For the same compound, the “inhibition of fibrin clot formation” value in series [5] came out at 67.1 ± 1.3%.

Regarding `COc1ccc(C(=O)O)cc1O` [IVA, isovanillic acid], in series [1], the “inhibition type against thrombin” value was “uncompetitive inhibition type”, the activity of thrombin entry is “significantly decreased”, it took 925 µM to reach half-maximal inhibition (IC50) and the affinity corresponds to a Ki of 923 µM. In addition, in series [1], the Kik/Kiv was determined as 1.1; the “Vmax value of thrombin decreased by, fold of non-treated” value is listed as 0.44–0.86 fold; the “Km value of thrombin reduced by, fold of non-treated” value was 0.52–0.93 fold; the “Kcat values of thrombin reduced by, fold of non-treated” value is on record as 0.43–0.86 fold. For the same compound, in series [1] (compound 0.065 mM (1 μg)), the Kcat amounted to 87.72 ± 1.32 s⁻¹ and the Vmax is recorded as 0.304 ± 0.013 mU/min. Also, in series [1] (compound 0.13 mM (2 μg)), the Kcat amounted to 94.13 ± 2.08 s⁻¹ and the Vmax stood at 0.326 ± 0.018 mU/min. Moreover, in series [1] (compound 0.325 mM (5 μg)), the Kcat was found to be 67.14 ± 0.93 s⁻¹ and the Vmax was 0.233 ± 0.010 mU/min. In addition, in series [1] (compound 0.65 mM (10 μg)), the Kcat came out at 54.42 ± 0.81 s⁻¹ and the Vmax came to 0.189 ± 0.007 mU/min. For the same compound, in series [1] (compound 1.3 mM (20 μg)), the Kcat stood at 48.31 ± 1.05 s⁻¹ and the Vmax is on record as 0.167 ± 0.008 mU/min. For the same compound, in series [2], the “APTT, dependence on concentration” value is on record as “increased APTT in a concentration-dependent manner”; the “APTT, fold of control” value was 1.70 fold; the “activated partial thromboplastin time (APTT)” value was 67.0 ± 4.0 s. Further, the thrombin-stimulated serotonin secretion result in series [3] (50–100 μg) is “inhibited significantly”. In addition, the “effect on leukocyte number” value in series [4] (10–50 μg/mL) is reported as “did not cause any effect”. Moreover, the “inhibition of fibrin clot formation” value in series [5] turned out to be 55.6 ± 1.7%.

In the case of `O=C(O)c1ccc(O)c(O)c1` [PA, protocatechuic acid], in series [1], the “inhibition type against thrombin” value was “mixed inhibition type”, the activity of thrombin entry is listed as “significantly decreased”, the IC50 turned out to be 1110 µM and the Ki stood at 1110 µM. In series [1], the Kik/Kiv is 125.4; the “Vmax value of thrombin decreased by, fold of non-treated” value is reported as 0.65–0.92 fold; the “Kcat values of thrombin reduced by, fold of non-treated” value is listed as 0.63–0.93 fold. In series [1] (compound 0.065 mM (1 μg)), the Kcat was determined as 101.67 ± 1.44 s⁻¹ and the Vmax is 0.352 ± 0.019 mU/min. Also, in series [1] (compound 0.13 mM (2 μg)), the Kcat was found to be 93.29 ± 1.60 s⁻¹ and the Vmax came out at 0.323 ± 0.021 mU/min. Further, in series [1] (compound 0.325 mM (5 μg)), the Kcat stood at 85.00 ± 2.13 s⁻¹ and the Vmax came to 0.295 ± 0.015 mU/min. In addition, in series [1] (compound 0.65 mM (10 μg)), the Kcat stood at 71.98 ± 1.95 s⁻¹ and the Vmax was determined as 0.249 ± 0.009 mU/min. Also, in series [1] (compound 1.3 mM (20 μg)), the Kcat was 69.08 ± 1.15 s⁻¹ and the Vmax came to 0.239 ± 0.008 mU/min. In series [2], the “APTT, fold of control” value turned out to be 1.33 fold and the “activated partial thromboplastin time (APTT)” value was determined as 52.5 ± 4.4 s. For the same compound, the thrombin-stimulated serotonin secretion result in series [3] (100 μg) is listed as “inhibited significantly”. Besides, the “effect on leukocyte number” value in series [4] (10–100 μg/mL) was “did not cause any effect”. Moreover, the “inhibition of fibrin clot formation” value in series [5] is given as 66.9 ± 3.3%.
